Experimental data reported in ChEMBL document CHEMBL5352438, “Discovery of Pyrrolo[2,3-d]pyrimidine derivatives as potent and selective colony stimulating factor 1 receptor kinase inhibitors” (Eur J Med Chem, 2022).

Columns and labels:
in vivo [1] = conditions: Sprague-Dawley, rat, iv, 1 mg/kg
in vivo [2] = conditions: Sprague-Dawley, rat, iv, 1 mg/kg; remark: listed apart in the source
in vivo [3] = conditions: Sprague-Dawley, rat, po, 10 mg/kg
in vivo [4] = conditions: Sprague-Dawley, rat, po, 10 mg/kg; remark: listed apart in the source
in vivo [5] = conditions: Sprague-Dawley, rat, po, 10 mg/kg; remark: listed apart in the source
in vivo [6] = conditions: Sprague-Dawley, rat, iv, 1 mg/kg; remark: listed apart in the source
in vivo [7] = conditions: Sprague-Dawley, rat, iv, 1 mg/kg; remark: listed apart in the source
in vivo [8] = conditions: Sprague-Dawley, rat, po, 10 mg/kg; remark: listed apart in the source

For Cn1ccc2c(Oc3ccc(NC(=O)Cc4ccc(C(F)(F)F)c(F)c4)cc3)ncnc21, the Cmax at 12 h (in vivo [1]) was 1430 ng/mL, the AUC(0-inf) at 12 h (in vivo [2]) was 1310 ng·h/mL and the CL/F at 12 h (in vivo [3]) was 11.6 mL/min/kg. The bioavailability at 12 h (in vivo [4]) was 111%, the AUC(0-inf) at 12 h (in vivo [5]) was 14600 ng·h/mL and the clearance at 12 h (in vivo [6]) was 13.3 mL/min/kg. The Vd at 12 h (in vivo [7]) was 1.55 L/kg and the Cmax at 12 h (in vivo [8]) was 1190 ng/mL.
